In patent US11419865B2, “Method for inducing a sustained immune response” (Cytocom Inc., priority 2016, dated 2022):

Columns and labels:
[1] = test system: advanced pancreatic cancer; settings: cited from earlier work
IBS patients = test: open-label study in forty-two IBS patients; type: in vivo, human
Experimental: Forty-two IBS patients participated in an open-label study. Participants received 0.5 mg PTI-901/day for 4 weeks and were evaluated during baseline, during treatment, and at 4-week follow-up. Patients recorded degree of abdominal pain, stool urgency, consistency, and frequency. Primary outcomes were number of pain-free days and overall symptom relief, evaluated by a global assessment score. Data were analyzed per protocol. Global assessment improved in 76% of 42 patients. During treatment, the mean weekly number of pain-free days increased from 0.5+/−1 to 1.25+/−2.14 (P=0.011).

Row | SMILES | Clinical benefit response, historical controls [1] | adverse reactions (IBS patients; 0.5 mg/day for 4 weeks) | patients with improved global assessment (IBS patients; 0.5 mg/day for 4 weeks, 42 patients) | mean weekly number of pain-free days during treatment (IBS patients; 0.5 mg/day, baseline 0.5+/−1, P=0.011)
1 | O=c1[nH]cc(F)c(=O)[nH]1 [5-fluorouracil (5-FU), 5-fluorouracil] | 4.8% |  |  | 
2 | Cl.O=C1CC[C@@]2(O)[C@H]3Cc4ccc(O)c5c4[C@@]2(CCN3CC2CC2)[C@H]1O5 [PTI-901] |  | no significant adverse reactions | 76% | 1.25 ± 2.14 days
3 | Nc1ccn([C@@H]2O[C@H](CO)[C@@H](O)C2(F)F)c(=O)n1 [gemcitabine] | 23.8% |  |  | 
